What all share (experiment): growth of human tumour cells (NCI), 48 h
Assay [1] concerns SK-OV-3 ovarian.
Assay [2] deals with PC-3 prostate.
For assay [3], the system named is OVCAR-3 ovarian.
Assay [4] relates to SNB-75 CNS.
Assay [5] relates to CAKI-1 renal.
In assay [6] the test system is NCI/ADR-RES ovarian.
Assay [7] concerns NCI-H460 lung.
Assay [8] deals with HT29 colon.
Assay [9] relates to SK-MEL-28 melanoma.
The subject of assay [10] is SR leukemia.

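Interpolation was linear, between the two tested concentrations surrounding the appropriate level; five concentrations were tested over 48 hours in 96-well plates. The concentration for 50% growth inhibition is given as GI50. TGI: concentration producing complete growth inhibition.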

This is an account of results in PubChem BioAssay (NCI).

Regarding `CC1OCC2OC(C)OC(C3C4=C(CC(C)(C)CC4=O)OC4=C3C(=O)CC(C)(C)C4)C2O1` (centres undefined), the TGI in assay [1], in [2], in assay [3], in assay [4], in assay [5] and in [6] was over 100 µM throughout. The TGI in assay [7], in [8], in assay [9] and in assay [10] was over 100 µM throughout.

As to `COCCNCC(O)Cn1c2ccc(Cl)cc2c2cc(Cl)ccc21` (centres undefined), the GI50 in assay [1] is 2460 nM; in assay [2], 1750 nM; in assay [3], 1950 nM; in assay [4] it was 1120 nM; in assay [5], 1700 nM; in assay [6], 2390 nM. For the same molecule, the GI50 is 1860 nM in assay [7], 2230 nM in assay [8], 1730 nM in assay [9] and 2980 nM in [10]. The TGI in [1] is 5.93 µM; in assay [2] it was 3.81 µM; in assay [3], 3.66 µM; in assay [4], 4.15 µM; in assay [5], 3.36 µM; in assay [6], 5.59 µM. In addition, the TGI turned out to be 3.6 µM in [7], 4.24 µM in assay [8], 3.25 µM in assay [9] and 6.92 µM in assay [10].

For the molecule `O=C(NNc1nc2cc(F)ccc2n2c(CN3CCOCC3)ccc12)c1ccccc1`, the GI50 in assay [1] is 405 nM; in assay [2], 339 nM; in assay [3], 242 nM; in [4], 300 nM; in [5], 223 nM; in assay [6], 211 nM. Moreover, the GI50 in assay [7] is 72.4 nM; in assay [8], 449 nM; in assay [9] it was 290 nM; in assay [10], 63.9 nM. For the same molecule, the TGI in assay [1] came to 3.39 µM; in assay [2] it was 3.05 µM; in assay [3] it was 1.65 µM; in assay [4], 3.63 µM; in [5] it was 1.5 µM; in assay [6] it was 2.37 µM. In addition, the TGI in [7] was found to be 1.32 µM; in assay [8] it was 7.48 µM; in assay [9], 1.78 µM.

Take `Brc1c[n+](Cc2ccc3ccccc3c2)cn1Cc1ccc2ccccc2c1`: the GI50 in assay [1] was 2560 nM; in assay [2], 1540 nM; in assay [3], 1410 nM; in [4] it was 1340 nM; in [5], 2030 nM; in assay [6], over 100000 nM. Further, the GI50 in assay [7] is 1780 nM; in assay [8], 1190 nM; in assay [9], 1550 nM; in assay [10], 1170 nM. In addition, the TGI in [1] was 11.4 µM; in [2], 3.62 µM; in assay [3], 2.86 µM; in [4] it was 3.03 µM; in assay [5], 5.17 µM; in assay [6] it was over 100 µM. Besides, the TGI in assay [7] is 3.57 µM; in [8], 3.35 µM; in [9] it was 3.09 µM; in [10], 5.11 µM.

In the case of `CN(C(=O)c1ccc(F)cc1C(F)(F)F)C1CCN(c2nnc(-c3ccnn3C)c3ccccc23)CC1`, the GI50 was over 77900 nM in [1]; 33300 nM in assay [2]; 38100 nM in assay [3]; 14500 nM in assay [4]; 31900 nM in [5]; 30900 nM in [6]. For the same molecule, the GI50 in [7] is 53900 nM; in assay [8], 55500 nM; in [9] it was over 65600 nM; in assay [10], 50900 nM. The TGI in assay [1], in assay [2], in assay [3], in [4], in assay [5] and in assay [6] was over 100 µM in each case. The TGI in [7], in assay [8], in assay [9] and in assay [10] was over 100 µM each time.

In the case of `COc1cc(-c2c3c(cn2S(=O)(=O)c2ccccc2)-c2nc(N)sc2CC3)cc(OC)c1OC`, the GI50 in assay [1] was 1170 nM; in assay [2], 549 nM; in assay [3], 414 nM; in assay [4], 222 nM; in assay [5] it was 724 nM; in [6], 612 nM. In addition, the GI50 was 510 nM in assay [7], 384 nM in assay [8], 1120 nM in [9] and 350 nM in [10]. The TGI in assay [1] is 9.77 µM; in assay [2] it was 25.8 µM; in assay [3] it was 6.9 µM; in [4], 1.1 µM; in assay [5], 36.6 µM; in assay [6], over 100 µM. Moreover, the TGI in assay [7] was found to be 18.4 µM; in assay [8], 3.44 µM; in assay [9], 29.8 µM; in [10] it was 15.6 µM.

In the case of `O=C1Nc2ccc(Cl)cc2/C1=C\c1c(-c2ccc(F)cc2)nc2ccccn12`, the GI50 in assay [1] was 2180 nM; in [2], 2430 nM; in assay [3] it was 1890 nM; in assay [4], 2080 nM; in [5], 2250 nM; in [6], 2300 nM. Further, the GI50 in assay [7] was 2350 nM; in [8], 2330 nM; in assay [9], 3330 nM; in [10] it was 2920 nM. In addition, the TGI was 5.06 µM in assay [1]; 8.36 µM in [2]; 3.8 µM in assay [3]; 7.97 µM in [4]; 6.45 µM in assay [5]; 7.06 µM in assay [6]. Also, the TGI in [7] was 5.89 µM; in [8], 5.41 µM; in assay [9] it was 15.3 µM; in assay [10] it was over 100 µM.

Consider `COc1ccccc1-c1cc2c3c(nc4ccccc42)C(=O)c2cccnc2-c3n1`, for which the GI50 in [1] is 20800 nM; in [2], 14900 nM; in assay [3], 1560 nM; in [4] it was 8890 nM; in [5], 13000 nM; in assay [6], 7110 nM. Also, the GI50 is 11500 nM in assay [7], 15300 nM in assay [8], 18400 nM in [9] and over 100000 nM in [10]. Further, the TGI in assay [1] is 51.2 µM; in assay [2], 38.2 µM; in assay [3], over 37.5 µM; in assay [4] it was 22.6 µM; in [5], 27.2 µM; in assay [6] it was 32.6 µM. The TGI in assay [7] is 26 µM; in assay [8] it was 29.9 µM; in assay [9], 34.7 µM; in assay [10], over 100 µM.

As to `CCCC[C@@H]1NC(=O)[C@H](CCCCN)NC(=O)[C@H](CCCNC(=N)N)NC(=O)[C@H](CC(C)C)NC(=O)[C@@H](NC(=O)[C@H](Cc2cccc(Cl)c2)NC(=O)[C@@H]2CCCN2C(=O)[C@@H](NC(C)=O)C(C)C)CCSSC[C@@H](C(=O)N[C@@H](CCCCN)C(=O)N2CCC[C@H]2C(=O)N2CCC[C@H]2C(=O)N[C@@H](CCC(=O)O)C(N)=O)NC(=O)[C@H](Cc2ccccc2)NC(=O)[C@H](CO)NC(=O)[C@H](C)NC(=O)[C@@H]2CCCN2C1=O`, the GI50 in [1], in [2], in [3], in [4], in [5] and in assay [6] was over 50000 nM each time. The GI50 in assay [7], in [8], in [9] and in assay [10] was over 50000 nM throughout. Besides, the TGI in assay [1], in [2], in assay [3], in assay [4], in [5] and in assay [6] was over 50 µM in each case. In addition, the TGI in assay [7], in assay [8], in [9] and in [10] was over 50 µM each time.

As for `O=C1C=C(SCCO)C(=O)c2ccccc21`, the GI50 in assay [1] is 3970 nM; in assay [2], 2450 nM; in [3], 1370 nM; in assay [4], 1370 nM; in [5] it was 2080 nM; in [6], 2160 nM. Besides, the GI50 in assay [7] is 1840 nM; in assay [8], 2580 nM; in assay [9], 2010 nM; in [10] it was 2170 nM. Besides, the TGI in assay [1] was 16.3 µM; in [2] it was 8.89 µM; in assay [3] it was 2.68 µM; in [4] it was 2.68 µM; in assay [5] it was 6.97 µM; in [6], 5.82 µM. In addition, the TGI in assay [7] came out at 3.59 µM; in [8], 6.73 µM; in assay [9], 4.02 µM; in [10], 5.75 µM.

Consider `COc1cc(OC)c(-c2cc(=O)c3c(OC)c(OC)c(OC)c(OC)c3o2)cc1OC`, for which the TGI in assay [1] was over 100 µM; in assay [2], over 100 µM; in [3] it was over 100 µM; in [4] it was over 73.9 µM; in assay [5], over 100 µM; in [6], over 100 µM. Besides, the TGI in assay [7], in assay [8], in [9] and in assay [10] was over 100 µM throughout.

Consider `Cc1ccc(NS(=O)(=O)c2ccc(-c3cnc(C4CC4)o3)cc2)cc1`, for which the GI50 is 4810 nM in [1]; 3270 nM in assay [2]; 2100 nM in assay [3]; 1130 nM in [4]; 2770 nM in assay [5]; 1610 nM in [6]. The GI50 in assay [7] is 3910 nM; in assay [8], 2340 nM; in [9], 6220 nM; in [10], 316 nM. Besides, the TGI turned out to be 19.6 µM in assay [1]; 16.3 µM in assay [2]; 6.13 µM in assay [3]; 4.25 µM in assay [4]; 15.4 µM in assay [5]; 7.79 µM in assay [6]. Besides, the TGI in [7] was 14.9 µM; in assay [8], 11 µM; in assay [9] it was 20.1 µM; in [10], 17.7 µM.

In the case of `Cc1c(Cl)ccc2c1NC(=O)C2(O)CC(=O)c1ccc(Cl)cc1Cl` (centres undefined), the TGI was over 50 µM in assay [1]; over 50 µM in assay [2]; over 50 µM in assay [3]; over 41.3 µM in assay [4]; over 50 µM in [5]; over 50 µM in assay [6]. For the same molecule, the TGI in assay [7] was over 50 µM; in assay [8] it was over 50 µM; in assay [9], over 50 µM; in assay [10] it was 0.826 µM.

As for `O=S(=O)(c1cccc(C(F)(F)F)c1)N1c2ccccc2-n2cccc2C1c1cccnc1` (centres undefined), the TGI in assay [1] was over 78.9 µM; in assay [2], over 52.6 µM; in [3], over 55 µM; in assay [4], over 100 µM; in assay [5], over 100 µM; in [6] it was 66.2 µM. The TGI is over 51.1 µM in [7], over 58 µM in assay [8], over 59 µM in [9] and 71.9 µM in [10].

Consider `O=C(c1ccccc1)c1ccc(-c2ccc(O)cc2)cc1`, for which the GI50 in assay [1] is 14800 nM; in assay [2], 9190 nM; in assay [3], 7590 nM; in [4], 4220 nM; in assay [5], 2350 nM; in assay [6], 5180 nM. Besides, the GI50 in assay [7] was 4200 nM; in [8], 31700 nM; in [9] it was 10400 nM; in [10], 3000 nM. Further, the TGI in [1] was over 71.6 µM; in assay [2], 58 µM; in assay [3] it was 31.6 µM; in assay [4], 34.5 µM; in assay [5] it was 9.84 µM; in assay [6], 54.9 µM. The TGI in [7] is 39.3 µM; in assay [8], over 100 µM; in assay [9], over 61.7 µM; in assay [10], 18.1 µM.

As for `CCCOC(=O)N[C@H]1CCc2c(Br)c(OC)c(OC)c(OC)c2-c2ccc(SC)c(=O)cc21`, the GI50 in assay [1] was 72.6 nM; in assay [2], 19.7 nM; in [3], 31.9 nM; in [4], 26.2 nM; in assay [5], 33.9 nM; in [6], 34.5 nM. For the same molecule, the GI50 in assay [7] was 30.6 nM; in assay [8], 29.7 nM; in [9], 2830 nM; in [10] it was under 10 nM. Further, the TGI was 59.5 µM in assay [1]; over 100 µM in assay [2]; 10.4 µM in assay [3]; 25.5 µM in [4]; 19.2 µM in assay [5]; over 57.4 µM in assay [6]. Further, the TGI in assay [7] is 2.02 µM; in assay [8], over 48 µM; in [9], 23.2 µM; in [10] it was over 40.5 µM.
